Tests used:
[1] = system: human pancreatic carcinoma xenograft model Panc11159; assay: Gemcitabine and compound 15 in human pancreatic carcinoma xenograft model Panc11159; type: in vivo, NMRI nude mice; details: for tumor volumes (change): at day 85, gemcitabine 240 mg/kg, compound 15 18 mg/kg gemcitabine equivalents; for Body weight change (BWC) versus control: gemcitabine 240 mg/kg i.v. d 36, 43, 50, 57, compound 15 18 mg/kg gemcitabine equivalents i.v. d 36, 40, 43, 47, 50, 54, 57, 60
Protocol: Female NMRI nude mice (nu/nu) received unilateral Panc11159 tumor pieces subcutaneously implanted until tumors were palpable and had reached a volume of ˜200 mm^3. Animals were kept in cages (Macrolon Type-II wire-mesh), the temperature inside the cages maintained at 22±1° C. with a relative humidity of 50±10%. Light period: artificial; 12-hours dark/12 hours light rhythm (light 06.00 to 18.00 hours). The health of the mice was examined at the start of the experiment and twice per day during the experiment; identification: Ear mark and cage labels. The animals were fed with Ssniff NM, Soest, Germany and had access to autoclaved and acidified (pH 4.0) drinking. Feed and water were provided ad libitum.
Body weight change was performed two or three times per week. Tumor diameters (median and medium) were measured two or three times a week with a caliper. Tumor volumes were calculated according to V=(length×(width)2)/2. For calculation of the relative tumor volume (RTV) the tumor volumes at each measurement day were related to the day of first treatment. Stock solutions of compound 15 were prepared as follows for the two treatment groups: • 10 mice, 30-40 g average weight: 2×18 mg/kg gemcitabine equivalents (bi-weekly dosing for 4 weeks)≡58.4 mg/kg≡2.35 mg/mouse. Sample preparation: 115.5 mg weighed in a 10 mL vial dissolved in 7.35 mL 20 mM sodium phosphate buffer pH 7; 4 aliquots with 1.86 mL each in 10 mL vials. Frozen in liquid nitrogen, lyophilized (>48 h) and stoppered.
On the day of treatment the lyophilized samples were dissolved in 20 mM sodium phosphate buffer pH 7, containing 5% Glucose and injected intravenously. Intravenous administration with vehicle (20 mM sodium phosphate buffer, 5% D-glucose—pH 7.0) gemcitabine (dissolved in 5% D-glucose; dose 240 mg/kg) and carried out on d 36, 43, 50, 57 compound 15 (dissolved in 20 mM sodium phosphate buffer, 5% D-glucose—pH 7.0; 18 mg/kg gemcitabine equivalents) was carried on days d 36, 40, 43, 47, 50, 54, 57, and 60.

[2] = system: NSLC xenograft model LXFE 397; assay: Gemcitabine and compound 15 in human xenograft non small cell lung cancer model LXFE 397; type: in vivo, NMRI nude mice
Protocol: Female NMRI nude mice received unilateral tumor implants subcutaneously in the left flank while under isoflurane anesthesia with human LXFE 397 (squamous cell carcinoma, differentiation: poor) until tumors were palpable and had reached a volume of 50-150 mm^3. Animals were kept in cages, the temperature inside the cages maintained at 25±1° C. with a relative humidity of 45-65% and an air change rate in the cage of 60-fold per hour. The animals were fed with autoclaved Teklad Global 19% Protein Extruded Diet (T.2019S.12) from Harlan Laboratories and had access to sterile filtered and acidified (pH 2.5) tap water which was changed twice weekly. Feed and water are provided ad libitum. […] Animals are routinely monitored twice daily on working days and daily on Saturdays and Sundays. Starting on day 0, animals are weighed twice a week. Relative body weights (RBW) of individual animals are calculated by dividing the individual absolute body weight on day X (BWx) by the individual body weight on the day of randomization. The tumor volume is determined by a two-dimensional measurement with calipers on the day of randomization (Day 0) and then twice weekly. Tumor volumes are calculated according to the following equation: Tumor Vol [mm^3]=a [mm]×b^2 [mm^2]×0.5, where “a” is the largest diameter and “b” is the perpendicular diameter of the tumor representing an idealized ellipsoid. The relative volume of an individual tumor on day X (RTVx) is calculated by dividing the absolute volume [mm^3] of the respective tumor on day X (Tx) by the absolute volume of the same tumor on the day of randomization. Schedules are applied to the extent that animal welfare policies allow. Termination of individual mice at tumor volume >2000 mm^3. Stock solutions of compound 15 were prepared as follows for the two treatment groups: • 1) 8 mice, 40 g average weight: 24 mg/kg Gemcitabine equivalents≡78.48 mg/kg≡3.14 mg/mouse. Sample preparation: 154 mg weighed in a 20 mL vial dissolved in 14.7 mL 20 mM sodium phosphate buffer pH 7; 4 aliquots with 3.6 mL each in 10 mL vials. Frozen in liquid nitrogen, lyophilized (>48 h) and stoppered. • 2) 8 mice, 40 g average weight: 36 mg/kg Gemcitabine equivalents≡117.7 mg/kg≡4.71 mg/mouse. Sample preparation: 231 mg weighed in a 20 mL vial dissolved in 14.7 mL 20 mM sodium phosphate buffer pH 7; 4 aliquots with 3.6 mL each in 10 mL vials. Frozen in liquid nitrogen, lyophilized (>48 h) and stoppered.
On the day of treatment the lyophilized samples were dissolved in 20 mM sodium phosphate buffer pH 7, containing 5% Glucose and injected intravenously. […]

[3] = system: human non-small cell carcinoma xenograft model LXFE 937; assay: Gemcitabine and compound 15 in human non-small cell carcinoma xenograft model LXFE 937; type: in vivo, NMRI nude mice; details: for Body weight change (BWC) versus control: compound 15 18 mg/kg gemcitabine equivalents i.v. days 0, 3, 7, 10, 14, 17, 21, 24
Protocol: Female NMRI nude mice received unilateral tumor implants subcutaneously in the left flank while under isoflurane anesthesia with human LXFE 937 tumor pieces until tumors were palpable and had reached a volume of ˜100 mm^3. Animals were kept in cages, the temperature inside the cages maintained at 25±1° C. with a relative humidity of 45-65% and an air change rate in the cage of 60-fold per hour. The animals were fed with autoclaved Teklad Global 19% Protein Extruded Diet (T.2019S.12) from Harlan Laboratories and had access to sterile filtered and acidified (pH 2.5) tap water which was changed twice weekly. Feed and water were provided ad libitum. […] Animals were routinely monitored twice daily on working days and daily on Saturdays and Sundays. Starting on day 0, animals were weighed twice a week. Relative body weights (RBW) of individual animals are calculated by dividing the individual absolute body weight on day X (BWx) by the individual body weight on the day of randomization. The tumor volume is determined by a two-dimensional measurement with calipers on the day of randomization (Day 0) and then twice weekly. Tumor volumes are calculated according to the following equation: • Tumor Vol [mm^3]=a [mm]×b^2 [mm^2]×0.5, where “a” is the largest diameter and “b” is the perpendicular diameter of the tumor representing an idealized ellipsoid. The relative volume of an individual tumor on day X (RTVx) is calculated by dividing the absolute volume [mm^3] of the respective tumor on day X (Tx) by the absolute volume of the same tumor on the day of randomization. Schedules are applied to the extent that animal welfare policies allow. Termination of individual mice at tumor volume >2000 mm^3. Stock solutions of compound 15 were prepared as follows for the two treatment groups: • 1) 8 mice, 40 g average weight: 2×18 mg/kg gemcitabine equivalents (bi-weekly dosing; d 0, 3, 7, 10 etc. for 4 weeks)≡58.4 mg/kg≡2.35 mg/mouse. Sample preparation: 115.5 mg weighed in a 10 mL vial dissolved in 7.35 mL 20 mM sodium phosphate buffer pH 7; 4 aliquots with 1.86 mL each in 10 mL vials. Frozen in liquid nitrogen, lyophilized (>48 h) and stoppered. On the day of treatment the lyophilized samples were dissolved in 20 mM sodium phosphate buffer pH 7, containing 5% Glucose and injected intravenously. Intravenous administration with vehicle (20 mM sodium phosphate buffer, 5% D-glucose—pH 7.0), gemcitabine (dissolved in 5% D-glucose; dose 240 mg/kg) and carried out on 1, 8, 15, and 22 and compound 15 (dissolved in 20 mM sodium phosphate buffer, 5% D-glucose—pH 7.0; 18 mg/kg gemcitabine equivalents) was carried on days 0, 3, 7, 10, 14, 17, 21, and 24.

[4] = system: human ovarian carcinoma xenograft model OVXF 899; assay: Gemcitabine and compound 15 in human ovarian carcinoma xenograft model OVXF 899; type: in vivo, NMRI nude mice; details: for Body weight change (BWC) versus control: compound 15 18 mg/kg gemcitabine equivalents i.v. days 1, 4, 8, 11, 15, 18, 22, 25
Protocol: Animals were kept in cages, the temperature inside the cages maintained at 25±1° C. with a relative humidity of 45-65% and an air change rate in the cage of 60-fold per hour. […] Feed and water were provided ad libitum. […] Animals were routinely monitored twice daily on working days and daily on Saturdays and Sundays. Starting on day 0, animals were weighed twice a week. Relative body weights (RBW) of individual animals are calculated by dividing the individual absolute body weight on day X (BWx) by the individual body weight on the day of randomization. The tumor volume is determined by a two-dimensional measurement with calipers on the day of randomization (Day 0) and then twice weekly. […] Schedules are applied to the extent that animal welfare policies allow. […] Frozen in liquid nitrogen, lyophilized (>48 h) and stoppered.

cytidine deaminase = biological target: T1, cytidine deaminase (Homo sapiens, UniProt P32320); details: recommended dose of ˜1000 mg/m^2; cited from earlier work
T1 construct: host or cells: endogenous enzyme in the dosed subject (in vivo metabolism)

[5] = approximately one seventh of the dose of gemcitabine, p<0.05
[6] = gemcitabine 240 mg/kg i.v. days 1, 8, 15, 22

T1 sequence (P32320 whole entry): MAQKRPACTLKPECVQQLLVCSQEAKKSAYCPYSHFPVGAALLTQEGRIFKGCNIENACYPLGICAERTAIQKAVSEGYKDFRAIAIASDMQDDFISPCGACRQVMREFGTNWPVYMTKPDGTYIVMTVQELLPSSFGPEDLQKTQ

SMILES	antitumor efficacy versus gemcitabine (tumor growth development) [1, 5]	tumor volumes (change) [1]	Body weight change (BWC) versus control [1]	antitumor efficacy versus gemcitabine (tumor growth development) ([2]; 24 mg/kg gemcitabine equivalents, one tenth of the dose of gemcitabine, p<0.05)	Body weight change (BWC) versus control ([2]; day 27, 24 mg/kg gemcitabine equivalents i.v. days 1, 8, 15, 22)	antitumor efficacy versus gemcitabine (tumor growth development) [3, 5]	Body weight change (BWC) versus control [3, 6]	tumor response ([3]; ˜60 days after the end of therapy, 18 mg/kg gemcitabine equivalents bi-weekly for 4 weeks)	tumor response ([4]; 50 days after the end of therapy, 18 mg/kg gemcitabine equivalents bi-weekly for 4 weeks)	antitumor efficacy versus gemcitabine (tumor growth development) [4, 5]	Body weight change (BWC) versus control [4, 6]	fraction deactivated by cytidine deaminase to the inactive uridine metabolite and excreted in the urine (cytidine deaminase)	Body weight change (BWC) versus control ([2]; day 23, gemcitabine 240 mg/kg i.v. days 1, 8, 15, 22)	mice sacrificed due to tumor volume exceeding 2000 mm^3 ([2]; on day 23, 8 mice per group, gemcitabine 240 mg/kg)	mice sacrificed due to tumor volume exceeding 2000 mm^3 ([3]; between day 78 to 85, 8 mice per group)	start of tumor regrowth [3, 6]	average tumor volume ([3]; ˜50 days after therapy, gemcitabine 240 mg/kg)	average tumor volume ([4]; 50 days after therapy, gemcitabine 240 mg/kg)	start of tumor regrowth [4, 6]	mice sacrificed due to tumor volume exceeding 2000 mm^3 ([4]; on day 74, 8 mice per group)
C/C(=N\NC(=O)c1ccc(NC(=O)CCCCCN2C(=O)C=CC2=O)cc1[N+](=O)[O-])c1ccc(C(=O)Nc2ccn([C@@H]3O[C@H](COP(=O)(O)O)C(O)C3(F)F)c(=O)n2)cc1 (stereo partly drawn) [Compound 15]	superior antitumor efficacy	slight regression or stable disease	approximately +3%	superior antitumor efficacy	~0.5%	superior antitumor efficacy	approximately +2%	complete tumor remissions	complete tumor remissions	superior antitumor efficacy	approximately +10%									
Nc1ccn([C@@H]2O[C@H](CO)[C@@H](O)C2(F)F)c(=O)n1 [gemcitabine]		doubled	approximately +3%				approximately +10%				approximately +5%	approximately 90%	approximately −6%	2 mice	2 mice	~20 days after therapy	~700 mm^3	~2000 mm^3	~10 days after therapy	3 mice

Reference: patent publication US12497417B2, “Delivery systems for controlled drug release” (LADRX CORPORATION, priority 2015, dated 2025)
